# Laboratory results: US20080114047A1 (priority 2003, published 2008)
# Values joined by “and” are separate entries in the source; they are usually repeats but may differ in a detail not shown here. Equal entries are not always repeated. Structures can show the parent of a compound that is named as a salt. Where two headings read alike, the source gives them in different places.
# Legend:
# [1] = system: L. donovani axenic amastigotes; assay: In vitro anti-leishmania activity (IC50 vs. L. donovani axenic amastigotes); format: cell-based; conditions: Leishmania donovani
# [2] = system: Trypanosoma brucei rhodesiense; assay: Anti-protozoan data: T.b.r. IC50; format: cell-based; conditions: Tables VI(a), VI(c), read-out: T.b.r. IC50
# Trypanosoma cruzi = assay: Anti-protozoan data: T. cruzi IC50; format: cell-based; conditions: Tables VI(a), VI(c), read-out: T. cruzi IC50
# Plasmodium falciparum = assay: Anti-protozoan data: P. falcip. IC50; format: cell-based; conditions: Tables VI(a), VI(c), read-out: P. falcip. IC50
# DNA = DNA binding ΔTm; conditions: Tables VI(a), VI(c)
# [3] = system: Mycobacterium tuberculosis; assay: Compounds tested against Mycobacterium tuberculosis (MIC90); format: cell-based; conditions: read-out: M. tb. MIC90
# Candida albicans = assay: Anti-fungal data: Candida albicans; format: cell-based; conditions: for MFC / MIC80: strain A39; for MIC: strain A39, read-out: Candida albicans (A39) MIC100
# Aspergillus fumigatus = assay: Anti-fungal data: Aspergillus fumigatus; format: cell-based; conditions: for MIC80 / MFC: strain DUMC 168.95; for MIC: strain DUMC 168.95, read-out: Aspergillus. Fumigatus (DUMC 168.95) MIC100
# Cryptococcus neoformans = assay: Anti-fungal data: Cryptococcus neoformans; format: cell-based; conditions: for MFC / MIC80: strain H99; for MIC: strain H99, read-out: Cryptococcus neoformans (H99) MIC100
# [4] = Tables VI(a), VI(c), read-out: Leishmania donovani IC50
Structure (SMILES),"IC50 [1, 4]",IC50 [2],IC50 (Trypanosoma cruzi),IC50 (Plasmodium falciparum),DNA binding Δ Tm (DNA),MIC90 [3],MFC (Candida albicans),MIC80 (Candida albicans),MIC (Candida albicans),MIC80 (Aspergillus fumigatus),MIC (Aspergillus fumigatus),MFC (Cryptococcus neoformans),MIC80 (Cryptococcus neoformans),MIC (Cryptococcus neoformans),IC50 (in vitro),melting point,MFC (Aspergillus fumigatus),"IC50 ([1]; axenic amastigotes, Tables I-V, read-out: IC50 vs. L. donovani)"
"CC(C)NC(=N)c1ccc2oc(CCCCc3cc4cc(C(=N)NC(C)C)ccc4o3)cc2c1 [Compound 21, dihydrochloride]",12700 ± 2270 nM,98.8 nM,69100 nM,9.8 nM,6.60,0.07 µg/mL and 0.13 µM,> 100 µg/mL,10 µg/mL,10 µg/mL,> 100 µg/mL,> 100 µg/mL,> 100 µg/mL,100 µg/mL,100 µg/mL,> 163000 nM,,,
"Cl.Cl.N=C(N)c1ccc(OCCCCCOc2ccc(-c3cc4cc(C(=N)N)ccc4o3)cc2)cc1 [Compound 50, 2-(4-(5-(4-Carbamimidoylphenoxy)pentyloxy)phenyl)benzofuran-5-carboxamidine dihydrochloride]",,369 nM,4710 nM,313 nM,12.7,1.01 µg/mL and 1.84 µM,3.12 µg/mL,0.39 µg/mL,0.78 µg/mL,6.25 µg/mL,> 100 µg/mL,12.5 µg/mL,0.39 µg/mL,0.78 µg/mL,4190 nM,290 °C (dec.),,
"Cl.Cl.N=C(N)c1ccc(OCCCCCOc2cccc(-c3cc4cc(C(=N)N)ccc4o3)c2)cc1 [Compound 38, 2-(3-(5-(4-Carbamimidoylphenoxy)pentyloxy)phenyl)benzofuran-5-carboxamidine dihydrochloride]",10500 ± 2110 nM,863 nM,7780 nM,428 nM,21.1,1.96 µg/mL and 3.48 µM,12.5 µg/mL,0.78 µg/mL,6.25 µg/mL,50 µg/mL,> 100 µg/mL,3.12 µg/mL,0.39 µg/mL,0.781 µg/mL,3020 nM,165 to 168 °C,,
"Cl.Cl.c1cc(C2=NCCN2)ccc1OCCCCCCOc1ccc(-c2cc3cc(C4=NCCN4)ccc3o2)cc1 [Compound 55, 2-(2-(4-(6-(4-(4,5-Dihydro-1H-imidazol-2-yl)phenoxy)hexyloxy)phenyl)benzofuran-5-yl)-4,5-dihydro-1H-imidazole dihydrochloride]",3320 ± 970 nM,360 nM,1830 nM,116 nM,14.4,> 82.7 µg/mL and > 128 µM,10 µg/mL,10 µg/mL,10 µg/mL,10 µg/mL,> 100 µg/mL,,,,1480 nM,275 to 277 °C,,
"CC(C)NC(=N)c1ccc(OCCCCCOc2ccc(-c3cc4cc(C(=N)NC(C)C)ccc4o3)cc2)cc1.Cl.Cl [Compound 51, 2-(4-(5-(4-(N-Isopropylcarbamimidoyl)phenoxy)pentyloxy)phenyl)-N-isopropylbenzofuran-5-carboxamidine dihydrochloride]",2080 ± 640 nM,302 nM,7680 nM,193 nM,18.7,0.9 µg/mL and 1.43 µM,100 µg/mL,100 µg/mL,100 µg/mL,100 µg/mL,100 µg/mL,,,,20500 nM,260 to 263 °C,> 100 µg/mL,
"Cl.Cl.N=C(N)c1ccc(OCCCCOc2ccc(-c3cc4cc(C(=N)N)ccc4o3)cc2)cc1 [Compound 47, 2-(4-(4-(4-Carbamimidoylphenoxy)butoxy)phenyl)benzofuran-5-carboxamidine dihydrochloride]",610 ± 530 nM,164 nM,2490 nM,141 nM,11.8,31.8 µg/mL and 59.8 µM,10 µg/mL,≤ 1 µg/mL,10 µg/mL,10 µg/mL,100 µg/mL,,,,1300 nM,310 °C,> 100 µg/mL,610 ± 530 nM
